From PubChem BioAssay AID1963840 (Molecular Pharmacology Branch, DTP, NCI, 2024) come the findings set out here.
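Further: spheroids exposed to compounds for seven days; 100% = DMSO vehicle control viability.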

The first experiment concerns 695427-040-R-J1-PDC complex spheroid viability. Nature of the experiment: Anticancer human tumor 695427-040-R-J1-PDC patient-derived colon adenocarcinoma cell line growth inhibition [POLQ]. The following applies: second compound 0.0316 µM; first compound 3.16 µM; active compounds read low. Put shortly:
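Three-cell-type spheroids modelling solid tumor plus stroma served as the readout system; POL inhibitors were tested individually and in combination, concentration ranges set by clinical Cmax where known.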
Regarding `CCc1cc2c(N3CCc4c(cc(Cn5ccnc5)cc4-c4cn(C)nc4C(F)(F)F)C3=O)cc(C)nc2c(OC)n1` + Nc1ccc(C#CCN(C(=O)Cc2ncc(C(F)(F)F)cc2C(F)(F)F)c2ccc(F)cc2)nn1, the viability, T/C is 113%.
Turning to `CCc1cc2c(N3CCc4c(cc(Cn5ccnc5)cc4-c4cn(C)nc4C(F)(F)F)C3=O)ccnc2c(OC)n1` + Nc1ccc(C#CCN(C(=O)Cc2ncc(C(F)(F)F)cc2C(F)(F)F)c2ccc(F)cc2)nn1, the viability, T/C is 105%.
On the same count and under the same terms, the result for `COc1cc2cc(C(=O)CCC(=O)O)sc2cc1OC` + Nc1ccc(C#CCN(C(=O)Cc2ncc(C(F)(F)F)cc2C(F)(F)F)c2ccc(F)cc2)nn1 reads 105%.

Staying with this experiment, now noted: second compound 0.0316 µM; first compound 10 µM; active compounds read low.
In the case of `C=CC(=O)N1CCN(c2nc(=O)n(-c3c(C)ccnc3C(C)C)c3nc(-c4c(O)cccc4F)c(F)cc23)C(C)C1` (stereo unspecified) + Nc1ccc(C#CCN(C(=O)Cc2ncc(C(F)(F)F)cc2C(F)(F)F)c2ccc(F)cc2)nn1, the viability, T/C was 104%.
Same read-out and setting: the result for `CC(C)n1c(=O)n(C)c2cnc3cc(F)c(-c4ccc(OCCCN5CCCCC5)nc4)cc3c21` + Nc1ccc(C#CCN(C(=O)Cc2ncc(C(F)(F)F)cc2C(F)(F)F)c2ccc(F)cc2)nn1 reads 91.4%.
For `CCc1cc2c(N3CCc4c(cc(Cn5ccnc5)cc4-c4cn(C)nc4C(F)(F)F)C3=O)cc(C)nc2c(OC)n1` + Nc1ccc(C#CCN(C(=O)Cc2ncc(C(F)(F)F)cc2C(F)(F)F)c2ccc(F)cc2)nn1, the viability, T/C is 108%.
On the same count and under the same terms, the result for `CCc1cc2c(N3CCc4c(cc(Cn5ccnc5)cc4-c4cn(C)nc4C(F)(F)F)C3=O)ccnc2c(OC)n1` + Nc1ccc(C#CCN(C(=O)Cc2ncc(C(F)(F)F)cc2C(F)(F)F)c2ccc(F)cc2)nn1 reads 96%; that for `COc1cc2cc(C(=O)CCC(=O)O)sc2cc1OC` + Nc1ccc(C#CCN(C(=O)Cc2ncc(C(F)(F)F)cc2C(F)(F)F)c2ccc(F)cc2)nn1, 92.1%.

Staying with this experiment, now noted: second compound 0.1 µM; first compound 0.0316 µM; active compounds read low.
On to `C=CC(=O)N1CCN(c2nc(=O)n(-c3c(C)ccnc3C(C)C)c3nc(-c4c(O)cccc4F)c(F)cc23)C(C)C1` (stereo unspecified) + Nc1ccc(C#CCN(C(=O)Cc2ncc(C(F)(F)F)cc2C(F)(F)F)c2ccc(F)cc2)nn1, for which the viability, T/C is 108%.
Still for that read-out and setting: the result for `CC(C)n1c(=O)n(C)c2cnc3cc(F)c(-c4ccc(OCCCN5CCCCC5)nc4)cc3c21` + Nc1ccc(C#CCN(C(=O)Cc2ncc(C(F)(F)F)cc2C(F)(F)F)c2ccc(F)cc2)nn1 reads 106%; that for `CCc1cc2c(N3CCc4c(cc(Cn5ccnc5)cc4-c4cn(C)nc4C(F)(F)F)C3=O)cc(C)nc2c(OC)n1` + Nc1ccc(C#CCN(C(=O)Cc2ncc(C(F)(F)F)cc2C(F)(F)F)c2ccc(F)cc2)nn1, 120%.
The same measure, in the same setting: the result for `CCc1cc2c(N3CCc4c(cc(Cn5ccnc5)cc4-c4cn(C)nc4C(F)(F)F)C3=O)ccnc2c(OC)n1` + Nc1ccc(C#CCN(C(=O)Cc2ncc(C(F)(F)F)cc2C(F)(F)F)c2ccc(F)cc2)nn1 reads 115%; that for `COc1cc2cc(C(=O)CCC(=O)O)sc2cc1OC` + Nc1ccc(C#CCN(C(=O)Cc2ncc(C(F)(F)F)cc2C(F)(F)F)c2ccc(F)cc2)nn1, 109%.

The same experiment, now with this note: second compound 0.1 µM; first compound 0.1 µM; active compounds read low.
Consider `C=CC(=O)N1CCN(c2nc(=O)n(-c3c(C)ccnc3C(C)C)c3nc(-c4c(O)cccc4F)c(F)cc23)C(C)C1` (stereo unspecified) + Nc1ccc(C#CCN(C(=O)Cc2ncc(C(F)(F)F)cc2C(F)(F)F)c2ccc(F)cc2)nn1, for which the viability, T/C was 110%.
With `CC(C)n1c(=O)n(C)c2cnc3cc(F)c(-c4ccc(OCCCN5CCCCC5)nc4)cc3c21` + Nc1ccc(C#CCN(C(=O)Cc2ncc(C(F)(F)F)cc2C(F)(F)F)c2ccc(F)cc2)nn1, the viability, T/C was 109%.
Same read-out and setting: to `CCc1cc2c(N3CCc4c(cc(Cn5ccnc5)cc4-c4cn(C)nc4C(F)(F)F)C3=O)cc(C)nc2c(OC)n1` + Nc1ccc(C#CCN(C(=O)Cc2ncc(C(F)(F)F)cc2C(F)(F)F)c2ccc(F)cc2)nn1 belongs 103%.
Consider `CCc1cc2c(N3CCc4c(cc(Cn5ccnc5)cc4-c4cn(C)nc4C(F)(F)F)C3=O)ccnc2c(OC)n1` + Nc1ccc(C#CCN(C(=O)Cc2ncc(C(F)(F)F)cc2C(F)(F)F)c2ccc(F)cc2)nn1, for which the viability, T/C is 112%.
For the molecule `COc1cc2cc(C(=O)CCC(=O)O)sc2cc1OC` + Nc1ccc(C#CCN(C(=O)Cc2ncc(C(F)(F)F)cc2C(F)(F)F)c2ccc(F)cc2)nn1, the viability, T/C is 118%.

The same experiment, now with this note: second compound 0.1 µM; first compound 0.316 µM; active compounds read low.
Consider `C=CC(=O)N1CCN(c2nc(=O)n(-c3c(C)ccnc3C(C)C)c3nc(-c4c(O)cccc4F)c(F)cc23)C(C)C1` (stereo unspecified) + Nc1ccc(C#CCN(C(=O)Cc2ncc(C(F)(F)F)cc2C(F)(F)F)c2ccc(F)cc2)nn1, for which the viability, T/C was 107%.
With `CC(C)n1c(=O)n(C)c2cnc3cc(F)c(-c4ccc(OCCCN5CCCCC5)nc4)cc3c21` + Nc1ccc(C#CCN(C(=O)Cc2ncc(C(F)(F)F)cc2C(F)(F)F)c2ccc(F)cc2)nn1, the viability, T/C was 115%.
For the molecule `CCc1cc2c(N3CCc4c(cc(Cn5ccnc5)cc4-c4cn(C)nc4C(F)(F)F)C3=O)cc(C)nc2c(OC)n1` + Nc1ccc(C#CCN(C(=O)Cc2ncc(C(F)(F)F)cc2C(F)(F)F)c2ccc(F)cc2)nn1, the viability, T/C was 103%.
Take `CCc1cc2c(N3CCc4c(cc(Cn5ccnc5)cc4-c4cn(C)nc4C(F)(F)F)C3=O)ccnc2c(OC)n1` + Nc1ccc(C#CCN(C(=O)Cc2ncc(C(F)(F)F)cc2C(F)(F)F)c2ccc(F)cc2)nn1: the viability, T/C is 101%.
On the same count and under the same terms, the result for `COc1cc2cc(C(=O)CCC(=O)O)sc2cc1OC` + Nc1ccc(C#CCN(C(=O)Cc2ncc(C(F)(F)F)cc2C(F)(F)F)c2ccc(F)cc2)nn1 reads 103%.

Staying with this experiment, now noted: second compound 0.1 µM; first compound 1 µM; active compounds read low.
As to `C=CC(=O)N1CCN(c2nc(=O)n(-c3c(C)ccnc3C(C)C)c3nc(-c4c(O)cccc4F)c(F)cc23)C(C)C1` (stereo unspecified) + Nc1ccc(C#CCN(C(=O)Cc2ncc(C(F)(F)F)cc2C(F)(F)F)c2ccc(F)cc2)nn1, the viability, T/C was 92.2%.
For the molecule `CC(C)n1c(=O)n(C)c2cnc3cc(F)c(-c4ccc(OCCCN5CCCCC5)nc4)cc3c21` + Nc1ccc(C#CCN(C(=O)Cc2ncc(C(F)(F)F)cc2C(F)(F)F)c2ccc(F)cc2)nn1, the viability, T/C was 107%.
Still for that read-out and setting: to `CCc1cc2c(N3CCc4c(cc(Cn5ccnc5)cc4-c4cn(C)nc4C(F)(F)F)C3=O)cc(C)nc2c(OC)n1` + Nc1ccc(C#CCN(C(=O)Cc2ncc(C(F)(F)F)cc2C(F)(F)F)c2ccc(F)cc2)nn1 belongs 101%.
